# Assay results reported in patent US20250064789A1, “KETOAMIDE DERIVATIVES AND PHARMACEUTICAL USES THEREOF” (priority 2022, published 2025).
# Tests used:
# [1] = target: hERG potassium ion channels (Homo sapiens (Human), UniProt Q12809); assay: hERG potassium current, whole cell patch clamp in HEK-293-hERG cells; conditions: 0.1 μM
# Vero E6 cells = assay: Cytotoxic assay against Vero E6 cells (MTT, 72 h); type: cell-based
# Procedure: (§1) The cytotoxicity assessment of compounds was performed against Vero E6 cells. The specific experimental procedures: Vero E6 cells were seeded into a 96-well plate at a cell density of 2×10^4 cells/well, with 100 μL/well, and then incubated overnight at 37° C. in a 5% CO2 incubator. The next day, 100 μL of drug-containing medium was added to each well. The compound was diluted in a 2-fold serial dilution with a top concentration of […], for a total of 6 gradients. Three repeated wells were set for each concentration, and negative controls and blank controls without drugs were included for each experiment. […] All experimental data were analyzed using GraphPad Prism software.
# [2] = system: BEAS-2B cells (normal human bronchial epithelial cells); assay: Cytotoxic assay against human BEAS-2B cells (MTT, 72 h); type: cell-based
# Procedure: (§2) BEAS-2B cells (normal human bronchial epithelial cells) and HUVEC cells (human umbilical vein endothelial cells) were used to evaluate the cytotoxicity of compounds against human-derived cells. The detailed experimental procedures: BEAS-2B cells or HUVEC cells were seeded into a 96-well plate at a cell density of 2×10^4 cells/well, that is, 100 µL/well, and then incubated overnight at 37° C. in a 5% CO2 incubator. The next day, 100 μL of drug-containing medium was added to each well. The compound was diluted in a 2-fold serial dilution with a top concentration of […], for a total of 6 gradients. Three repeated wells were set for each concentration, and negative controls and blank controls without drugs were included for each experiment. […] All experimental data were analyzed using GraphPad Prism software.
# [3] = system: HUVEC cells (human umbilical vein endothelial cells); assay: Cytotoxic assay against HUVEC cells (MTT, 72 h); type: cell-based
# Procedure: as §2
# [4] = Metabolic stability using human liver microsomes; type: in vitro ADME; conditions: 37° C.; for Human liver microsomes T1/2: NADPH
# [5] = male, Sprague-Dawley, rat, in vivo, iv, 1 mg/kg
# in vivo = conditions: male, Sprague-Dawley, rat
# [6] = In vivo pharmacokinetic properties in rats; conditions: SD rats
# [7] = target: recombinant SARS-CoV-2 M^pro (Severe acute respiratory syndrome coronavirus 2 (2019-nCoV) (SARS-CoV-2), UniProt P0DTD1); assay: Inhibition of SARS-CoV-2 M^pro enzyme activity (fluorescent substrate assay); type: biochemical; conditions: inhibition of SARS-CoV-2 M^pro enzyme activity; values in nM; read-out: IC50
# [8] = Cytotoxic assay against Vero E6 cells (MTT, 72 h); type: cell-based; conditions: African green monkey
# Procedure: as §1
# [9] = Cytotoxic assay against human BEAS-2B cells (MTT, 72 h); type: cell-based; conditions: human
# Procedure: as §2
# [10] = Cytotoxic assay against HUVEC cells (MTT, 72 h); type: cell-based, human; conditions: human
# Procedure: as §2
# human thrombin = human thrombin (Homo sapiens (Human), UniProt P00734); assay: Human protease biochemical activity assay: Thrombin activity testing kit; conditions: read-out: Thrombin IC50
# Procedure: (§3) The biochemical activity of compounds against human proteases was determined using Cathepsin K inhibitor screening kit (K150-100), Cathepsin B inhibitor screening kit (K147-100), Thrombin activity testing kit (K373-100), Caspase-2 inhibitor screening kit (K152-100), and Cathepsin D inhibitor screening kit (K148-100) according to the instructions of the kits (Biovision, USA). All experiments were carried out in triplicate. All experimental data were analyzed using GraphPad Prism software.
# human cathepsin K = human cathepsin K (Homo sapiens (Human), UniProt P43235); assay: Human protease biochemical activity assay: Cathepsin K inhibitor screening kit; conditions: read-out: Cathepsin K IC50
# Procedure: as §3
# human cathepsin B = human cathepsin B (Homo sapiens (Human), UniProt P07858); assay: Human protease biochemical activity assay: Cathepsin B inhibitor screening kit
# Procedure: as §3
# human caspase 2 = human caspase 2 (Homo sapiens (Human), UniProt P42575); assay: Human protease biochemical activity assay: Caspase-2 inhibitor screening kit; conditions: read-out: Caspase-2 IC50
# Procedure: as §3
# human cathepsin D = human cathepsin D (Homo sapiens (Human), UniProt P07339); assay: Human protease biochemical activity assay: Cathepsin D inhibitor screening kit
# Procedure: as §3
# Sequence of human cathepsin K (P43235 115-329): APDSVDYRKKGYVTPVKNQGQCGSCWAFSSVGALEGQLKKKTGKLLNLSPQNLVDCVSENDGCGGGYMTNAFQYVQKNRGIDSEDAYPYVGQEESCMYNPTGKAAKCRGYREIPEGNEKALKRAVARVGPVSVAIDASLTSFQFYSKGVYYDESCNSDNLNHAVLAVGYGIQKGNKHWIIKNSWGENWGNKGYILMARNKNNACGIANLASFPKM
# Sequence of human caspase 2 (P42575 170-325): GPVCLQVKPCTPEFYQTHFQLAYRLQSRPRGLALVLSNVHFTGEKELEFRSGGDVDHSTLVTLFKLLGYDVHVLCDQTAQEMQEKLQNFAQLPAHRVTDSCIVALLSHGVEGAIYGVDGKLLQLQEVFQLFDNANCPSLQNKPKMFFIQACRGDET
# Sequence of human caspase 2 (P42575 348-452): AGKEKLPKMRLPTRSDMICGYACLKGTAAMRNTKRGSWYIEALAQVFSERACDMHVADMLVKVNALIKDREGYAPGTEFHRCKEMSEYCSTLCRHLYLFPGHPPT
# Sequence of human cathepsin D (P07339 65-412): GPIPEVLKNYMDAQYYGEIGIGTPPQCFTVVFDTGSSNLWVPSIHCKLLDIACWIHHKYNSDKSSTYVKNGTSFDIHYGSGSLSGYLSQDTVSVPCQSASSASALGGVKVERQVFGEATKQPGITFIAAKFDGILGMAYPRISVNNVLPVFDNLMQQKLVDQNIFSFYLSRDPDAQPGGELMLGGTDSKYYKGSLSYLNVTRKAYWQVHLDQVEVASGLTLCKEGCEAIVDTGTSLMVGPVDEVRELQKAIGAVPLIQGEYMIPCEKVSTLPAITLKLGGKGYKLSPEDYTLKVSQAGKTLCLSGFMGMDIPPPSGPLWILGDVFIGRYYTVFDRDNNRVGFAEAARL
# Sequence of hERG potassium ion channels (Q12809 whole entry, looked up): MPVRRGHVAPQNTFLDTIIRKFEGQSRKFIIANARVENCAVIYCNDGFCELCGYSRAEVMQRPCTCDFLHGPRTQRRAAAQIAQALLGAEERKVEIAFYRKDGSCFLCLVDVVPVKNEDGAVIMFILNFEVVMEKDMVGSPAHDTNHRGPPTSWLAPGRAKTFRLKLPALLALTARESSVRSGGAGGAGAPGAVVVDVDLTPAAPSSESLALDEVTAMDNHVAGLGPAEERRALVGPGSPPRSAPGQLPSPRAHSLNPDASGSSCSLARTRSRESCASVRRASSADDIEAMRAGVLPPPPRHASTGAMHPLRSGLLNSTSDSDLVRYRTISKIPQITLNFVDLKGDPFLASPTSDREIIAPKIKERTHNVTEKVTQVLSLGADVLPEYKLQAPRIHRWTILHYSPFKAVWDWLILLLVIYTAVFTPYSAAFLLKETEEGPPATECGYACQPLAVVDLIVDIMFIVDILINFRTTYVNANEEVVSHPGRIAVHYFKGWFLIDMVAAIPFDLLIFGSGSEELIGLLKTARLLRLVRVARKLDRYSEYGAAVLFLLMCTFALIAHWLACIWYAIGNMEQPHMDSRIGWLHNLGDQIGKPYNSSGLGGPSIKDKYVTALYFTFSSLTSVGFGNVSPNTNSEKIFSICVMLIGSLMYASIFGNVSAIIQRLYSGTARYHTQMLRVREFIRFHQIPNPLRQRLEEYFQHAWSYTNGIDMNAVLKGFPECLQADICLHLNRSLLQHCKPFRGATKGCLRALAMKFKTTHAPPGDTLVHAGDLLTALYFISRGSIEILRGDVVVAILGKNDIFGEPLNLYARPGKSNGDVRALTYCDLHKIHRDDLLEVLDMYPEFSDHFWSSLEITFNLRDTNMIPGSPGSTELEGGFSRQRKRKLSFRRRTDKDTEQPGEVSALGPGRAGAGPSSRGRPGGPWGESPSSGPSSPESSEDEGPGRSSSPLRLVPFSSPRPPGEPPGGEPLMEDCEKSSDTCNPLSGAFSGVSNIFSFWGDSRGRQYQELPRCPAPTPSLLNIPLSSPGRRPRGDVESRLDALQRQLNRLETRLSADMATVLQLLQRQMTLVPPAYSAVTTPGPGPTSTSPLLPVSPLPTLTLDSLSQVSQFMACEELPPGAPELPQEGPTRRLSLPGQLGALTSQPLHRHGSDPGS
SMILES,CC50 (Vero E6 cells),CC50 [2],CC50 [3],Vssobs [5],"MRT inf (in vivo; iv, 1 mg/kg)","Tmax (in vivo; iv, 1 mg/kg)","MRT inf (in vivo; po, 10 mg/kg)",AUCINF—obs ([6]; i.v. 1 mg/kg),AUClast ([6]; i.v. 1 mg/kg),Cmax ([6]; i.v. 1 mg/kg),AUCINF—obs ([6]; p.o. 10 mg/kg),AUClast ([6]; p.o. 10 mg/kg),Cmax ([6]; p.o. 10 mg/kg),T1/2 ([6]; p.o. 10 mg/kg),Tmax ([6]; p.o. 10 mg/kg),IC50 [7],CC50 at 72 h [8],CC50 at 72 h [9],CC50 at 72 h [10],further results
"COc1cc(N)c(Cl)cc1C(=O)NC1CCN(CCCOc2ccc(F)cc2)CC1OC (stereo not drawn) [Cisapride, reference compound]",–,–,–,–,–,–,–,–,–,–,–,–,–,–,–,–,–,–,–,The average tail current after administration [1]: 128.04 pA
C[C@@H](NC(=O)C1CCC(F)(F)CC1)C(=O)N[C@H](Cc1ccccc1)C(=O)C(=O)NCc1nccs1 [Compound 354],> 500 µM,> 500 µM,> 500 µM,1.31 ± 0.54 L/kg,0.93 ± 0.18 h,4.8 min,4.89 ± 1.14 h,1020.76 ± 261.50 ng·h/mL,1011.17 ± 258.49 ng·h/mL,1105.29 ± 69.99 ng/mL,2844.61 ± 326.65 ng·h/mL,2567.31 ± 678.74 ng·h/mL,306.27 ± 32.12 ng/mL,3.01 ± 0.91 h,2.67 ± 1.15 h,–,–,–,–,"Human liver microsomes T1/2 [4]: 0.5935 h; half-life (in vivo; iv, 1 mg/kg): 2.42 ± 2.24 h; F % ([6]; p.o. 10 mg/kg): 25.39 ± 6.71%"
C[C@@H](NC(=O)C1CCC(F)(F)CC1)C(=O)N[C@H](Cc1ccco1)C(=O)C(=O)NCc1ccccn1 [Compound 362],–,–,–,–,–,–,–,–,–,–,–,–,–,–,–,34 ± 0.6 nM,> 500 µM,> 500 µM,> 500 µM,"half-life at 1 µM ([4]; pH 7.4, NADPH, read-out: Human liver microsomes T1/2): 0.561 h"
C[C@@H](NC(=O)C1CCCC(F)(F)C1)C(=O)N[C@H](Cc1ccccc1)C(=O)C(=O)NCc1nccs1 (stereo partly drawn) [Compound 375],–,–,–,–,–,–,–,–,–,–,–,–,–,–,–,13.8 ± 1.2 nM,> 500 µM,325 µM,384 µM,–
C[C@@H](NC(=O)CC1CC(F)(F)C1)C(=O)N[C@H](Cc1ccccc1)C(=O)C(=O)NCc1nccs1 [Compound 378],> 500 µM,> 500 µM,> 500 µM,3.65 ± 0.74 L/kg,3.19 ± 0.31 h,4.8 min,6.57 ± 0.38 h,2254.80 ± 672.40 ng·h/mL,2196.61 ± 634.20 ng·h/mL,1568.34 ± 201.27 ng/mL,8696.48 ± 1124.53 ng·h/mL,8180.11 ± 795.05 ng·h/mL,734.80 ± 101.62 ng/mL,5.84 ± 1.30 h,1.33 ± 0.58 h,21.2 ± 0.3 nM,–,–,–,"IC50 (human thrombin): > 100 µM; IC50 (human cathepsin K): > 100 µM; IC50 (human cathepsin B): > 100 µM; IC50 (human caspase 2): > 100 µM; IC50 (human cathepsin D): > 100 µM; bioavailability (in vivo; po, 10 mg/kg): 7.95 ± 2.8%; CL ([6]; i.v. 1 mg/kg): 7.95 ± 2.80 mL/min/kg; T1/2 ([6]; i.v. 1 mg/kg): 5.47 ± 0.77 h"
C[C@@H](NC(=O)C1CCC(F)(F)C1)C(=O)N[C@H](Cc1ccccc1)C(=O)C(=O)NCc1nccs1 (stereo partly drawn) [Compound 379],> 500 µM,> 500 µM,> 500 µM,2.49 ± 1.61 L/kg,1.26 ± 0.42 h,4.8 min,5.9 ± 0.79 h,1329.00 ± 555.62 ng·h/mL,1292.28 ± 530.92 ng·h/mL,1317.59 ± 168.03 ng/mL,6903.48 ± 2619.87 ng·h/mL,6721.57 ± 2461.95 ng·h/mL,634.54 ± 161.39 ng/mL,4.15 ± 1.48 h,1.67 ± 0.58 h,22.5 ± 0.7 nM,–,–,–,Human liver microsomes T1/2 [4]: 0.7035 h; IC50 (human thrombin): > 100 µM; IC50 (human cathepsin K): > 100 µM; IC50 (human cathepsin B): > 100 µM; IC50 (human caspase 2): > 100 µM; IC50 (human cathepsin D): > 100 µM; CL ([6]; i.v. 1 mg/kg): 14.52 ± 7.25 mL/min/kg; T1/2 ([6]; i.v. 1 mg/kg): 1.90 ± 0.27 h; F % ([6]; p.o. 10 mg/kg): 52.01 ± 19.05%
O=C(CC1CC(F)(F)C1)NCC(=O)N[C@H](Cc1ccccc1)C(=O)C(=O)NCc1nccs1 [Compound 387],–,–,–,–,–,–,–,–,–,–,–,–,–,–,–,12.5 ± 1.2 nM,> 500 µM,> 500 µM,> 500 µM,–
